Measured values as given in patent US20120136033A1, “Small Molecule Antagonists of Phosphatidylinositol-3,4,5-Triphosphate (PIP3) and Uses Thereof” (President and Fellows of Harvard College, priority 2009, published 2012).

Key:
Btk PH domain = target: T1, Btk PH domain (Homo sapiens, UniProt Q06187); test: PH domain translocation assay, GFP-fused Btk PH domain; assay type: cell-based; conditions: 100 μM, 2 hr, PDGF stimulation
T1 construct: Btk PH domain-GFP vector was purchased from Signagen Laboratories
Procedure: Cells were transfected with the corresponding GFP-fusion vectors, serum starved overnight, and incubated with 100 μM PITs or PIT-1is for 2 hr, followed by stimulation with 100 ng/ml PDGF or 250 ng/ml PMA for 5 min. The translocation was analyzed using fluorescent microscope and was quantitated by counting the number of cells with translocated PH domains in five random fields.
To begin characterizing cellular activity of PITs, a PH domain translocation assay was performed, measuring PIP3-induced association of GFP-fused PH domains with the plasma membrane. This method provides useful means for monitoring status of the PH domain/PIP3 binding in the intact cells. Varnai P et al. (1999) J Biol Chem 274:10983-9. Several PH-domain-containing proteins, which are known to bind PIP3 specifically and efficiently, were examined. […] Oikawa T et al. (2004) Nat Cell Biol 6:420-6.

PI3K-PDK1-Akt pathway = PI3K-PDK1-Akt pathway phosphorylation events in U87MG cells; assay type: cell-based, human
Procedure: The effect of PIT-1 on PIP3-mediated signaling was examined in U87MG glioblastoma cells, which show elevated basal levels of PIP3 due to the loss of PTEN. Pore N et al. (2003) Cancer Res 63:236-41.

[1] = tested on: multiple cancer cell lines; test: cancer cell viability (MTS or ATP assay), multiple cancer cell lines; assay type: cell-based; conditions: for viability of multiple cancer cell lines: B16, Jurkat, Lewis lung carcinoma, A549, 4T1, SUM-159, MDA-MB-231, MTS or ATP assay
Procedure: Different cancer cell lines U87MG, SUM 159, A549, and MDA-MB-231 were incubated with the indicated concentrations of PIT-1 (12.5-100 μM) for 48 hr. Cell viability was determined using ATP assay.
Based on the critical role of PIP3-dependent Akt signaling in the regulation of cell survival, the effect of PIT-1 on the cancer cell viability was tested. Cancer cells were seeded into 96-well plates (white plates for ATP assay; black plates for fluorescent assay; clear plates for MTS assay) at the density of 5-10×10^3 cells per well in 100 μl of the appropriate media. Compounds were added at a series of concentrations and incubated for different times. For the ATP assay, a luminescence-based commercial kit (CellTiter-Glo, Promega, Madison, Wis.) was used. Thirty microliters of cell lysis/ATP detection reagent was added to each well, mixed for 10 min at room temperature, and the luminescence was measured using a Wallac Victor 3 plate reader (Perkin-Elmer, Wellesley, Mass.). For the MTS assay, a CellTiter 96 AQueous Non-Radioactive Cell Proliferation Assay Kit (Promega, Madison, Wis., USA) was used. Twenty microliters of the combined MTS/PMS solution was added into each well, incubated for 4 hr at 37° C., and the absorbance at 490 nm was measured using a Wallac Victor 3 plate reader. For the Sytox cell death assay, measuring loss of plasma membrane integrity, cells were incubated with 1 μM Sytox Green reagent (Molecular Probes, Eugene, Oreg.) for 30 min at 37° C. and the fluorescence intensity was measured using Wallac Victor 3 plate reader with excitation at 485 nm and emission at 545 nm. Next, 5 μl of 20% (v/v) Triton X-100 solution was added to each well and incubated for 1 hr at 37° C., and the signal was measured again. The ratio of values (percentage of dead cells in each well) before and after Triton X-100 treatment was calculated and normalized to the relevant controls not subjected to the cytotoxic stimuli. IC50 values were determined using Origin6 software (MicroCal, LLC, Northampton, Mass.).

[2] = tested on: SV40-transformed mouse adult lung fibroblasts; test: loss of viability, Akt1-expressing vs Akt1-3 triple knockout lung fibroblasts; assay type: cell-based; conditions: P<0.01
Text: Shaughnessy J D (2008) Nature 454:172-3; Weinstein I G (2002) Science 297:63-4. Therefore, the possibility that PIT-1 may cause preferential cell death in the cells containing elevated PIP3 levels was examined. […] Li D M et al. (1998) Proc Natl Acad Sci USA 95:15406-11. […] This observation is consistent with the notion that PTEN-deficient cancer cells become overly dependent on PIP3 signaling and, therefore, are hypersensitive to disruption of this pathway compared to wild-type PTEN-expressing cells. Neshat M S et al. (2001) Proc Natl Acad Sci USA 98:10314-9.

cells = test: cell death under glucose/glutamine deprivation; assay type: cell-based
Text: Elstrom R L et al. (2004) Cancer Res 64:3892-9.

cancer cells = assay type: cell-based
SUM159 cells [3] = test: actin polymerization and ruffling/lamellipodia formation in SUM159 cells; assay type: cell-based, human; conditions: 25, 50, 100 μM PITs or 100 μM PIT-1is, 8 hr; PDGF 15 min
Procedure: In one set of experiments, the ability of PITs to inhibit actin polymerization and ruffling/lamellipodia formation was examined in SUM159 cells. Cells were serum starved and treated with PITs (25, 50 100 μM) or PIT-1is (100 μM) for 8 hr, followed by PDGF (100 ng/ml) stimulation for 15 min. Cells were fixed and stained with TRITC-phalloidin to visualize actin fibers, followed by fluorescent microscopy analysis. The number of cells with ruffles/lamellipodia was counted in five random fields.

SUM159 cells [4] = test: cell polarization in wounded SUM159 monolayers; assay type: cell-based, human; conditions: 100 μM, 2 hr
Procedure: In order to measure cell polarization, wounds were generated in SUM159 cell monolayers, followed by serum starvation and treatment with 100 μM PIT-1, PIT-2, PIT-1i-1, or PIT-1i-2 for 2 hr. Cells were stimulated for 15 min with 100 ng/ml PDGF, fixed and stained with TRITC-phalloidin for F-actin (red), acetylated tubulin antibody (green) for microtubule organization center (MTOC), and Hoechst for nuclei (blue). Cell polarization was evaluated by analysis of the relative location of the MTOC and nucleus. […] The number of polarized cells was counted in five random fields under fluorescent microscope.

T1 sequence (Q06187 3-133 limits assumed): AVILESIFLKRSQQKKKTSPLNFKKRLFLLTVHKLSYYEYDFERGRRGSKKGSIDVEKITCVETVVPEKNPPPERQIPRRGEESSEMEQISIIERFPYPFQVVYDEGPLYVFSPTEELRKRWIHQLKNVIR

| SMILES | inhibition of translocation of Btk PH domain to the plasma membrane (Btk PH domain) | activity of the PI3K-PDK1-Akt pathway in U87MG cells (PI3K-PDK1-Akt pathway) | viability of U87MG, SUM 159, A549 and MDA-MB-231 cells ([1]; 12.5-100 μM, 48 hr, ATP assay) | viability of multiple cancer cell lines [1] | loss of viability in Akt1-expressing fibroblasts compared to Akt1-3 triple knockout cells [2] | cell death in combination with glucose/glutamine deprivation (cells) | cancer cell invasion through matrigel (cancer cells) | cytotoxic effects at the low concentrations used in migration and invasion experiments (cancer cells; P>0.05) | PDGF-induced membrane ruffling in SUM159 cells (SUM159 cells [3]) | cell polarization and lamellipodia formation induced by PDGF, wound healing model (SUM159 cells [4]) |
| --- | --- | --- | --- | --- | --- | --- | --- | --- | --- | --- |
| O=C(NC(=S)Nc1cc([N+](=O)[O-])cc(Cl)c1O)c1ccccc1 [PIT-1] | significantly inhibited | suppressed activity | reduces viability | reduced viability | more pronounced | dramatic induction of cell death | efficiently suppressed | no significant cytotoxic effects | efficiently inhibited | effective at preventing cell polarization |
| O=C1NC(=S)S/C1=C\c1cc(O)c([N+](=O)[O-])cc1Cc1ccccc1 [PIT-2] | significantly inhibited | suppressed activity |  | reduced viability | more pronounced | dramatic induction of cell death | efficiently suppressed |  | efficiently inhibited | effective at preventing cell polarization |
